The subject of one assay is K562. In words: In vitro antitumor activity against K562 cell line extracted formchronic myelogenous leukemia. The format is functional, cell-based. Particulars: Homo sapiens.
The next assay concerns MIA PaCa-2. In words: In vitro antitumor activity against MiaPaCa-2 cell line extracted form pancreas adenocarcinoma. In kind it is functional, cell-based. Particulars: Homo sapiens.
Assay [1] has as its system L1210. In words: In vitro antitumor activity using the incorporation of thymidine and uridine into RNA of L1210 cells at time 1 hr. In kind it is functional, Mus musculus.
Another assay concerns COLO 320DM. The experiment in a line: In vitro antitumor activity against COLO 320DM cell line extracted form colon adenocarcinoma. The format is functional, cell-based. Particulars: Homo sapiens.
Assay [2] has as its system L1210. The experiment in a line: In vitro antitumor activity using the incorporation of thymidine and uridine into RNA of L1210 cells at time 3 hr. In kind it is functional, Mus musculus.
The next assay deals with MCF7. In words: In vitro antitumor activity against MCF-7 cell line extracted form mammary carcinoma. In kind it is functional, cell-based. Particulars: Homo sapiens.
Another assay relates to PANC-1. In words: In vitro antitumor activity against PANC cell line extracted form pancreas adenocarcinoma. The format is functional, cell-based. Conditions: Homo sapiens.
The subject of another assay is HL-60. The experiment in a line: In vitro antitumor activity against HL-60 cell line extracted formpromyelocytic leukemia. In kind it is functional, cell-based. Conditions: Homo sapiens.
For assay [3], the system named is L1210. In words: In vitro antitumor activity using the incorporation of thymidine and uridine into DNA of L1210 cells at time 2 hr. The format is functional, Mus musculus.
The subject of assay [4] is L1210. The experiment in a line: In vitro antitumor activity using the incorporation of thymidine and uridine into RNA of L1210 cells at time 2 hr. The format is functional, Mus musculus.
For another assay, the system named is CCRF-CEM. In words: In vitro antitumor activity against CCRF-CEM cell line extracted form acute lymphoblastic leukemia. The format is functional, cell-based. Conditions: Homo sapiens.
For assay [5], the system named is L1210. The experiment in a line: In vitro antitumor activity using the incorporation of thymidine and uridine into DNA of L1210 cells at time 1 hr. The format is functional, Mus musculus.
The subject of a further assay is HT-1080. The experiment in a line: In vitro antitumor activity against HT1080 cell line extracted form fibrosarcoma. In kind it is functional, cell-based. Particulars: Homo sapiens.
Assay [6] relates to L1210. The experiment in a line: In vitro antitumor activity using the incorporation of thymidine and uridine into DNA of L1210 cells at time 3 hr. In kind it is functional, Mus musculus.
For another assay, the system named is Huh-7. The experiment in a line: In vitro antitumor activity against HuH7 cell line extracted form hepatoma. In kind it is functional, cell-based. Particulars: Homo sapiens.
The next assay concerns A-375. The experiment in a line: In vitro antitumor activity against A375cell line extracted form melanoma. In kind it is functional, cell-based. Conditions: Homo sapiens.

The record followed here is ChEMBL document CHEMBL1130896, “Nucleosides and nucleotides. 176. 2'-Deoxy-2'-hydroxylaminocytidine: a new antitumor nucleoside that inhibits DNA synthesis although it has a ribonucleoside structure” (Bioorg Med Chem Lett, 1998).

For `Nc1ccn(C2OC(CO)[C@@H](O)[C@H]2NO)c(=O)n1` (stereo partly specified), the IC50 (as a rule, the concentration needed to halve the response being measured) in the assay with K562 was determined as 2770 nM; in the assay with MIA PaCa-2, 4000 nM; in the assay on COLO 320DM, 8930 nM; in the assay with MCF7, 1300 nM; with PANC-1, 69100 nM; in the assay on HL-60, 5760 nM. In addition, the IC50 in the assay on CCRF-CEM was 1730 nM; with HT-1080 it was 2530 nM; in the assay on Huh-7 it was 1470 nM; in the assay on A-375 it was 890 nM. For the same molecule, the Inhibition (usually the percentage by which the read-out fell short of the control) in the assay on L1210 [1] is given as 21%; in the assay on L1210 [2] it was 23%; with L1210 [3], 98%; in the assay with L1210 [4], 20%; in the assay with L1210 [5], 83%; with L1210 [6], 95%.
